Experimental data from patent US20160202206A1, “Matrix-Enhanced Electrochemical Detector for Pathogenic Bacteria” (NORTHEASTERN UNIVERSITY, priority 2013, published 2016).
Like-named read-outs stand apart in the source and are kept apart here.

Tests used:
[1] = system: P. aeruginosa strain PA14; assay type: cell-based, Pseudomonas aeruginosa; settings: for effect on pyocyanin production: M63 minimal media or TSB, single amino acid added (tyrosine 3.2 mM, valine 17.6 mM); for up-regulatory effect on pyocyanin production compared with the other amino acids tested: six amino acids tested, M63 minimal media and TSB, scans over 24 hours; for time to appearance of a pyocyanin signal: M63 minimal media, versus no added amino acid (nearly 24 hours)
Method: All bacterial tests were completed using wild-type P. aeruginosa strain PA14. Cell cultures were routinely grown in trypticase soy broth (TSB) (BD Biosciences 211768) at 37° C. and later stored on TSB agar plates at 4° C. when not in use. All amino acids were purchased from Sigma-Aldrich (St. Louis, Mo.) and dissolved in solution using either TSB or M63 minimal salts medium (Fisher Cat. 50-751-6740) [(NH4)2SO4 (15 mM), KH2PO4 (100 mM)] supplemented with MgSO4 (1 mM) and glycerol (0.027 mM). Electrochemical measurements were performed using commercially available Zensor TE100 (EDAQ ET077) screenprinted electrodes featuring carbon working and counter electrodes. Although the Zensor TE100 electrodes include a silver paste reference, a separate 1 M KCl Ag/AgCl reference electrode (CHI111) was employed to minimize the chances of drift in reference potential during measurements lasting several hours, which can occur when the reference electrode is in direct contact with the sample solution. All electrochemical measurements were recorded using a potentiostat (CHI842C, CH Instruments).
Individual amino acids were dissolved at specific concentrations in either 10 mL of TSB or M63 media. Each solution was inoculated with a specific concentration of P. aeruginosa and incubated at 37 C. […] of each solution was removed at designated time points and loaded onto a Zensor electrode for electrochemical testing. Square-wave voltammetric scans were performed at potentials ranging from −0.4 to −0.1 V at an amplitude voltage of 0.050 V and a frequency of 15 Hz. Scans were performed for each sample three times with three replicates for each tested condition. The data was analyzed using OriginPro 9.1 (OriginLab Corporation). Baselines were created for each data set using spline interpolation with 8 base points. The resulting baseline-subtracted data set was used to determine the max currents observed from pyocyanin production.
Liquid cultures of P. aeruginosa were grown in either M63 minimal media or TSB to observe the effect of amino acid addition on the bacteria's production of pyocyanin using the methods described in Example 2. 10 μL of stock PA14 culture was loaded into 10 mL liquid cultures each containing one of six different amino acids (final concentration of 4 million cells per mL). […] Electrochemical scans were taken roughly every two hours over the course of a 24-hour period.
Tyrosine and valine were prepared at concentrations ranging from those quantified in typical cystic fibrosis infection levels (tyrosine: 0.2 mM, valine: 1.1 mM) to an 80-fold increase, which reached the solubility limit of the amino acids in TSB. The initial concentration of P. aeruginosa loaded in each sample was kept constant at roughly 4 million cells per mL and electrochemical scans were taken every two hours over the course of ten hours. FIGS. 11 A and B show scans taken after eight hours of growth in addition to a control with no amino acid additives. Again, consistent among all scans was the observance of a pyocyanin peak around −0.25 V vs. a Ag/AgCl reference. […] It is possible that valine has an inhibitory effect on pyocyanin production at such high concentrations. While such inhibition has been observed for other molecules (D. J. Musk, D. A. Banko and P. J. Hergenrother, Chem. Biol., 2005, 12, 789-796), P. aeruginosa has not been previously studied at valine concentrations that are over 100 times greater than what is typically found in a pseudomonal infection.
The next set of tests studied how varying the initial P. aeruginosa cell concentration would affect the production of pyocyanin in the presence of amino acids. TSB media was used as the growth media to which tyrosine and valine were added. Tyrosine (16 mM) and valine (17.6 mM) concentrations were held constant while varying amounts of P. aeruginosa were added into the samples (4, 20, 40, 400 million cells per mL). […]

[2] = system: P. aeruginosa cultures; settings: cited from earlier work

SMILES	effect on pyocyanin production ([1]; 4 million cells per mL)	effect of varying amino acid concentration on amounts of pyocyanin produced after the critical time point ([1]; TSB, 4 million cells per mL)	effect of varying amino acid concentration on time needed for cells to up-regulate pyocyanin production ([1]; TSB, 4 million cells per mL)	rate of pyocyanin production, 16 mM tyrosine compared with 17.6 mM valine ([1]; TSB, 4 million cells per mL)	up-regulatory effect on pyocyanin production compared with the other amino acids tested [1]	effect on biofilm formation [2]	time to appearance of a pyocyanin signal [1]	also measured
CC(C)[C@H](N)C(=O)O [valine]	up-regulatory effect	significant effect	minimal effect	nearly identical	largest up-regulatory effect of the six amino acids tested	up-regulate biofilm formation	–	pyocyanin production when concentration raised to 88 mM ([1]; TSB, 88 mM versus 17.6 mM valine): decreased; amino acid concentration giving the largest pyocyanin concentration ([1]; TSB, 4 million cells per mL, eight hours of growth): 17.6 mM
O=C(O)[C@@H]1CCCN1 [proline]	–	–	–	–	–	up-regulate biofilm formation	–	–
N[C@@H](Cc1c[nH]cn1)C(=O)O [histidine]	–	–	–	–	–	up-regulate biofilm formation	significantly less time	–
N=C(N)NCCC[C@H](N)C(=O)O [arginine]	–	–	–	–	–	up-regulate biofilm formation	–	–
N[C@@H](Cc1ccc(O)cc1)C(=O)O [tyrosine]	up-regulatory effect	significant effect	minimal effect	nearly identical	greatest up-regulatory effect in both media	up-regulate biofilm formation	significantly less time	time of statistically significant increase in current output ([1]; TSB, 16 mM tyrosine, 400 million cells per mL, FIG. 14 A): between four and six hours; time of statistically significant increase in current output ([1]; TSB, 4 million cells per mL, FIG. 12 A): between six and eight hours; pyocyanin produced, 16 mM tyrosine versus 17.6 mM valine ([1]; TSB, initial cell concentrations above 4 million cells per mL): more pyocyanin than 17.6 mM valine; up-regulatory effect on pyocyanin production compared with the other amino acids tested ([1]; listed as Tyrosine): largest up-regulatory effect of the six amino acids tested
CC(C)C[C@H](N)C(=O)O [leucine]	–	–	–	–	–	up-regulate biofilm formation	–	–
